Test results from ChEMBL document CHEMBL6115034, “Pseudonatural Flavonols as Novel Copper Ionophores for NAFLD Intervention via Synergistic Copper Delivery and Flavonoid Activity” (J Med Chem, 2025).
The source made the active and inactive calls. The rule behind the calls is not given here.

Experiments:
HepG2 [1] = test: Anti-NAFLD activity in palmitic acid human HepG2 NAFLD cell model assessed as upregulation of CYP4F12 expression at 0.5 uM incubated for 24 hrs in presence of CuCl2 by mRNA sequencing analysis; assay type: functional, cell-based
HepG2 [2] = test: Anti-NAFLD activity in palmitic acid human HepG2 NAFLD cell model assessed as upregulation of fatty acid metabolism related genes at 0.5 uM incubated for 24 hrs in presence of CuCl2 by mRNA sequencing analysis; assay type: functional, cell-based
[3] = Toxicity in male C57BL/6 mouse assessed as change in ALT level at 125 mg/kg, po compound administrated as copper complex measured for 10 weeks; assay type: organism-based; conditions: in vivo, 1680 h
[4] = Stability of the compound in cell culture medium containing 10% fetal bovine serum in presence of histidine by UV-Vis spectrophotometer analysis; assay type: physicochemical, cell-free; conditions: cattle
[5] = Toxicity in male C57BL/6 mouse assessed as change in body weight at 125 mg/kg, po compound administrated as copper complex measured for 10 weeks; assay type: organism-based; conditions: in vivo, 1680 h
Mus musculus [6] = test: Anti-NAFLD activity in high-fat diet-induced male C57BL/6J mouse model assessed as reduction in IL-6 level in liver at 125 mg/kg, po compound administrated as copper complex measured for 10 weeks; assay type: functional, organism-based
HeLa = test: Induction of copper transporting activity in human HeLa cells assessed as increase in intracellular copper levels incubated upto 24 hrs by ICP-MS analysis; assay type: functional, cell-based; conditions: dose 0.02-20 µM
HepG2 [7] = test: Anti-NAFLD activity in palmitic acid human HepG2 NAFLD cell model assessed as upregulation of SOD1 expression at 0.5 uM incubated for 24 hrs in presence of CuCl2 by mRNA sequencing analysis; assay type: functional, cell-based
[8] = Stability of the compound in cell culture medium containing 10% fetal bovine serum in presence of cysteine by UV-Vis spectrophotometer analysis; assay type: physicochemical, cell-free; conditions: cattle
Mus musculus [9] = test: Anti-NAFLD activity in high-fat diet-induced male C57BL/6J mouse model assessed as increase in malic acid level at 125 mg/kg, po compound administrated as copper complex measured for 10 weeks by LC-MS/MS analysis; assay type: functional, organism-based
HepG2 [10] = test: Anti-NAFLD activity in palmitic acid human HepG2 NAFLD cell model assessed as upregulation of MT1X expression at 0.5 uM incubated for 24 hrs in presence of CuCl2 by mRNA sequencing analysis; assay type: functional, cell-based
Mus musculus [11] = test: Anti-NAFLD activity in high-fat diet-induced male C57BL/6J mouse model assessed as increase in liver weight at 125 mg/kg, po compound administrated as copper complex measured for 10 weeks […]; assay type: functional, organism-based
[12] = Toxicity in male C57BL/6 mouse assessed as spleen lesion at 125 mg/kg, po compound administrated as copper complex measured for 10 weeks; assay type: organism-based; conditions: in vivo, 1680 h
[13] = Toxicity in male C57BL/6 mouse assessed as lung lesion at 125 mg/kg, po compound administrated as copper complex measured for 10 weeks; assay type: organism-based; conditions: in vivo, 1680 h
[14] = Photophysical property of the compound assessed as fluorescence quantum yield; assay type: physicochemical
HepG2 [15] = test: Anti-NAFLD activity in palmitic acid human HepG2 NAFLD cell model assessed as downregulation of STEAP4 expression at 0.5 uM incubated for 24 hrs in presence of CuCl2 by mRNA sequencing analysis; assay type: functional, cell-based
HepG2 [16] = test: Anti-NAFLD activity in palmitic acid human HepG2 NAFLD cell model assessed as upregulation of POR expression at 0.5 uM incubated for 24 hrs in presence of CuCl2 by mRNA sequencing analysis; assay type: functional, cell-based
Mus musculus [17] = test: Anti-NAFLD activity in high-fat diet-induced male C57BL/6J mouse model assessed as decrease in 3-phosphoglycerate at 125 mg/kg, po compound administrated as copper complex measured for 10 weeks by LC-MS/MS analysis; assay type: functional, organism-based
HepG2 [18] = test: Anti-NAFLD activity in palmitic acid human HepG2 NAFLD cell model assessed as decrease in lipid droplet level at 5 uM measured at 24 hrs by Oil Red O staining based assay relative to control; assay type: functional; design: scale not given: the % may be the effect or the level left
HepG2 [19] = test: Anti-NAFLD activity in palmitic acid human HepG2 NAFLD cell model assessed as downregulation of STAT2 expression at 0.5 uM incubated for 24 hrs in presence of CuCl2 by mRNA sequencing analysis; assay type: functional, cell-based
HepG2 [20] = test: Anti-NAFLD activity in palmitic acid human HepG2 NAFLD cell model assessed as downregulation of STAT1 expression at 0.5 uM incubated for 24 hrs in presence of CuCl2 by mRNA sequencing analysis; assay type: functional, cell-based
HepG2 [21] = test: Anti-NAFLD activity in palmitic acid human HepG2 NAFLD cell model assessed as upregulation of CYP4F3 expression at 0.5 uM incubated for 24 hrs in presence of CuCl2 by mRNA sequencing analysis; assay type: functional, cell-based
Mus musculus [22] = test: Anti-NAFLD activity in high-fat diet-induced male C57BL/6J mouse model assessed as increase in R5P level in liver at 125 mg/kg, po compound administrated as copper complex measured for 10 weeks by LC-MS/MS analysis; assay type: functional, organism-based
Hepatocyte = test: Cytotoxicity against mouse Hepatocyte assessed as cell viability at 0.1 to 5 uM measured at 24 hrs by MTT assay; assay type: toxicity, cell-based; conditions: hepatocytes, dose 0.1-5 µM
HepG2 [23] = test: Anti-NAFLD activity in palmitic acid human HepG2 NAFLD cell model assessed as effect on IFIT3 expression at 0.5 uM incubated for 24 hrs in presence of CuCl2 by mRNA sequencing analysis; assay type: functional, cell-based
HepG2 [24] = test: Cytotoxicity against human HepG2 cells assessed as cell viability at 0.1 to 5 uM compound administrated as copper complex measured at 24 hrs by MTT assay; assay type: functional, cell-based; conditions: dose 0.1-5 µM
HepG2 [25] = test: Anti-NAFLD activity in palmitic acid human HepG2 NAFLD cell model assessed as downregulation of STAT3 expression at 0.5 uM incubated for 24 hrs in presence of CuCl2 by mRNA sequencing analysis; assay type: functional, cell-based
HepG2 [26] = test: Anti-NAFLD activity in palmitic acid human HepG2 NAFLD cell model assessed as upregulation of NQO1 expression at 0.5 uM incubated for 24 hrs in presence of CuCl2 by mRNA sequencing analysis; assay type: functional, cell-based
[27] = Toxicity in male C57BL/6 mouse assessed as kidney lesion at 125 mg/kg, po compound administrated as copper complex measured for 10 weeks; assay type: organism-based; conditions: in vivo, 1680 h
[28] = Stability of the compound in cell culture medium containing 10% fetal bovine serum in presence of EDTA by UV-Vis spectrophotometer analysis; assay type: physicochemical, cell-free; conditions: cattle
HepG2 [29] = test: Anti-NAFLD activity in palmitic acid human HepG2 NAFLD cell model assessed as effect on IL6 expression at 0.5 uM incubated for 24 hrs in presence of CuCl2 by mRNA sequencing analysis; assay type: functional, cell-based
HepG2 [30] = test: Anti-NAFLD activity in palmitic acid human HepG2 NAFLD cell model assessed as downregulation of IL6 expression at 0.5 uM incubated for 24 hrs in presence of CuCl2 by mRNA sequencing analysis; assay type: functional, cell-based
[31] = Stability of compound in PBS buffer in presence of EDTA by UV-Vis spectrophotometer analysis; assay type: physicochemical

## O=c1c(O)c(-c2ccc3cccc(O)c3n2)oc2ccccc12
HepG2 [1]
  Activity: Active
HepG2 [2]
  Activity: Active
[3]
  Activity: Non-toxic
[4]
  Stability: Stable
[5]
  Activity: Non-toxic
Mus musculus [6]
  Activity: Active
HeLa
  Activity: Dose-dependent-effect
HepG2 [7]
  Activity: Active
[8]
  Stability: Stable
Mus musculus [9]
  Activity: Active
HepG2 [10]
  Activity: Active
Mus musculus [11]
  Activity: Active
[12]
  Activity: Non-toxic
[13]
  Activity: Non-toxic
[14]
  Activity: 0.199
HepG2 [15]
  Activity: Active
HepG2 [16]
  Activity: Active
Mus musculus [17]
  Activity: Active
HepG2 [18]
  Activity: 61%
HepG2 [19]
  Activity: Active
HepG2 [20]
  Activity: Active
HepG2 [21]
  Activity: Active
Mus musculus [22]
  Activity: Active
Hepatocyte
  Activity: Non-toxic
HepG2 [23]
  Activity: Active
HepG2 [24]
  Activity: Active
HepG2 [25]
  Activity: Active
HepG2 [26]
  Activity: Active
[27]
  Activity: Non-toxic
[28]
  Stability: Stable
HepG2 [29]
  Activity: Active
HepG2 [30]
  Activity: Active
[31]
  Stability: Stable
